The target of assay [1] is Angiotensin-converting enzyme (Homo sapiens, UniProt P12821). Description: Inhibitory concentration required to inhibit Angiotensin I converting enzyme (ACE).
A further assay deals with Neprilysin (Homo sapiens, UniProt P08473). Description: Inhibitory concentration required to inhibit neutral endopeptidase (NEP).
A further assay has as its target T1, Thermolysin (Bacillus thermoproteolyticus, UniProt P00800).
T1 sequence (P00800 whole entry): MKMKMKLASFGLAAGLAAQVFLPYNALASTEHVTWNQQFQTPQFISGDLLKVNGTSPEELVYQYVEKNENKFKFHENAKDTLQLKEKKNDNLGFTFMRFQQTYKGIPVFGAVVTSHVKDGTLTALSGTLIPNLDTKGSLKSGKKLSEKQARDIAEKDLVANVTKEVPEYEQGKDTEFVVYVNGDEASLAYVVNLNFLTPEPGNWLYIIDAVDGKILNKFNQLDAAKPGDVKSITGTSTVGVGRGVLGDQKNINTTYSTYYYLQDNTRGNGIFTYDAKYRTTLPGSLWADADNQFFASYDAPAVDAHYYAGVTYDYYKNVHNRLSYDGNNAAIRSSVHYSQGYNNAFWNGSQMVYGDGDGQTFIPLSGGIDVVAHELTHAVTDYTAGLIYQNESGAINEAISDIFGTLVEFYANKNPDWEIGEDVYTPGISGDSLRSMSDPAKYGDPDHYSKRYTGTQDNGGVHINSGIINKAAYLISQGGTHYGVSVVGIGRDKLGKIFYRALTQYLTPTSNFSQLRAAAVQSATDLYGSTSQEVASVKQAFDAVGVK
Description: Inhibitory concentration required to inhibit thermolysin (TLN).

Molecules are shown by their SMILES. Where only a bound is given, the exact number is not on record here.

Neprilysin, sequence (P08473 whole entry): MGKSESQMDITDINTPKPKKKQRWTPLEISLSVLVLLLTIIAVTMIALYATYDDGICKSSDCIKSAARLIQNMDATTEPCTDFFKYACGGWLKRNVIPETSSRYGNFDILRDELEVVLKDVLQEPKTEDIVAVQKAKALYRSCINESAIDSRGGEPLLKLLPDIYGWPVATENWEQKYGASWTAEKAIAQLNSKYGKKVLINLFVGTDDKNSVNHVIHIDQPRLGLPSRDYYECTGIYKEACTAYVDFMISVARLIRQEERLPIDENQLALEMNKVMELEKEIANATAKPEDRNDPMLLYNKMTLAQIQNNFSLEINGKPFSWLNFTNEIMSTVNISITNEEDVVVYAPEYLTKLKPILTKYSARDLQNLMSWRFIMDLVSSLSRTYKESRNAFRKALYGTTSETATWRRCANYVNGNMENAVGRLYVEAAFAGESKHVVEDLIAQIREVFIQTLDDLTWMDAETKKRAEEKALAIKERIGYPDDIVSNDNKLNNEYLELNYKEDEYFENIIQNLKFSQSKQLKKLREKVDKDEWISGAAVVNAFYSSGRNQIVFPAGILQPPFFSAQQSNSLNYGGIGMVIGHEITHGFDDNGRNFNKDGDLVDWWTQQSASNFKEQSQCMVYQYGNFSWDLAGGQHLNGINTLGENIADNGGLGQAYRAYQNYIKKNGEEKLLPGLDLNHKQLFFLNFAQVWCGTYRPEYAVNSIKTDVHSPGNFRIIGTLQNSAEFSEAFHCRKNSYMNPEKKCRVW
Angiotensin-converting enzyme, sequence (P12821 whole entry): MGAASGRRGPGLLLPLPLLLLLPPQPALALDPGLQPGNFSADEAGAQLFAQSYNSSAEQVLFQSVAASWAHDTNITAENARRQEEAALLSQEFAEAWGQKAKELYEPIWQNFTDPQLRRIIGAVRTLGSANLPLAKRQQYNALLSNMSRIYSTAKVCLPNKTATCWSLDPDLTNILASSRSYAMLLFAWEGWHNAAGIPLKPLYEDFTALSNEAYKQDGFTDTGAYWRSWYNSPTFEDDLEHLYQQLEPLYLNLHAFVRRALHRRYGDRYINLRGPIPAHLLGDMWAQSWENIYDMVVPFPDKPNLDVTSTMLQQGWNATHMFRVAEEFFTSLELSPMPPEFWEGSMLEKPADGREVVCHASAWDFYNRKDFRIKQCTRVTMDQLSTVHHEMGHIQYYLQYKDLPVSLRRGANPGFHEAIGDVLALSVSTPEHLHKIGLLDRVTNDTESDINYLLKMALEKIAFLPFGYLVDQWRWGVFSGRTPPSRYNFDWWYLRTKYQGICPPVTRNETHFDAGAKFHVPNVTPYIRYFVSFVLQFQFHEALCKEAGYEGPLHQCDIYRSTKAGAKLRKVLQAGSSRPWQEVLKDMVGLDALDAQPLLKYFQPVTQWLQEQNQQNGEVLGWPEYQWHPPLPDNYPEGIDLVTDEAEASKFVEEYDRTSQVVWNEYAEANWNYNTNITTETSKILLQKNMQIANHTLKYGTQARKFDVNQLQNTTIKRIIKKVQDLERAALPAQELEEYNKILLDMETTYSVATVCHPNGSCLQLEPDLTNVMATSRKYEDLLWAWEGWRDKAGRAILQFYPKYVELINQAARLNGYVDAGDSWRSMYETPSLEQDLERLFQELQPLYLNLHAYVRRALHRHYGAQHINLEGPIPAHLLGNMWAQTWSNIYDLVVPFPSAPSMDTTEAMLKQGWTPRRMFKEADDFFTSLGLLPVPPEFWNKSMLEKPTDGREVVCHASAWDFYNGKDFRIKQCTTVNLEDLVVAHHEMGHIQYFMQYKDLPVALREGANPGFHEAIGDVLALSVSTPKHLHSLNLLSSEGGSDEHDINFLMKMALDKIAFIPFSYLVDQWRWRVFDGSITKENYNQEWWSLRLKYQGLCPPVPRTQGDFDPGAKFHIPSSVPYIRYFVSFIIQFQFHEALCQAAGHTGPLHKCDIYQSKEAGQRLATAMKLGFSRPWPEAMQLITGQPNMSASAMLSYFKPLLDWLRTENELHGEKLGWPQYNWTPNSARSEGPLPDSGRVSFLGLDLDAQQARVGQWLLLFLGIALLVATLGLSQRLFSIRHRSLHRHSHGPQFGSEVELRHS

`O=C1N[C@H](C(=O)O)CCCCCc2ccccc2C[C@H]1CS` yielded a 50% inhibitory concentration (IC50) in assay [1] of 2000 nM. This lies in the single-digit micromolar range.
As to `O=C1N[C@H](C(=O)O)CCCCCCc2ccccc2C[C@H]1CS`, the IC50 was greater than 10000 nM in assay [1], 224 nM at Neprilysin and 41000 nM at Thermolysin.
For `O=C1N[C@H](C(=O)O)CCCCCCc2cccc(c2)C[C@@H]1CS`, the IC50 is 175 nM in assay [1], 4 nM against Neprilysin and 34000 nM against Thermolysin.
The compound `O=C1N[C@H](C(=O)O)Cc2ccccc2CCCCCC[C@@H]1CS` gave an IC50 in assay [1] of 725 nM.
The same measure, in the same setting: as for `O=C1N[C@H](C(=O)O)CCCCc2ccccc2C[C@H]1CS`, the figure is greater than 10000 nM.
`O=C1N[C@H](C(=O)O)CCCCCc2cccc(c2)C[C@@H]1CS`: the IC50 stood at 4 nM in assay [1], 8 nM on Neprilysin and 48000 nM against Thermolysin.
Turning to `O=C1N[C@H](C(=O)O)CCCCCc2cccc(c2)C[C@H]1CS`, the IC50 in assay [1] was 1400 nM; against Neprilysin, 1000 nM; on Thermolysin, greater than 10000 nM.
As for `O=C1N[C@@H](C(=O)O)Cc2ccccc2CCCCCC[C@@H]1CS`, 470 nM corresponded to half-maximal inhibition in assay [1] (IC50).
`O=C1N[C@H](C(=O)O)CCCCCCc2cccc(c2)C[C@H]1CS`: the values for the IC50 (in assay [1]; on Neprilysin; at Thermolysin) were 118 nM, 445 nM and greater than 10000 nM, respectively.
`O=C1N[C@@H](C(=O)O)Cc2ccccc2CCCCC[C@@H]1CS` showed a concentration for half-maximal inhibition (IC50) in assay [1] of 6000 nM. This counts as single-digit micromolar.
For the compound `O=C1N[C@H](C(=O)O)CCCCCc2ccccc2C[C@@H]1CS`, the midpoint of inhibition in assay [1], the IC50, lay at 8000 nM.
The same measure, in the same setting: as for `O=C1N[C@H](C(=O)O)CCCCc2ccccc2C[C@@H]1CS`, the figure is greater than 10000 nM.
Take `O=C1N[C@@H](C(=O)O)Cc2ccccc2CCCCCCC[C@@H]1CS`: in assay [1], the IC50 was greater than 10000 nM.
With `O=C1N[C@H](C(=O)O)CCCCCCc2ccccc2C[C@@H]1CS`, the results for the IC50 (in assay [1]; against Neprilysin; against Thermolysin) were greater than 10000 nM, 27 nM and 1800 nM, respectively.
`C[C@H](CS)C(=O)N1Cc2[nH]c3ccccc3c2CC1C(=O)O` (some centres not stated) gave an IC50 in assay [1] of 500 nM.

As a reminder, the IC50 is the concentration at which inhibition is half-maximal. High values mean weaker potency in that assay, low ones greater potency in that assay.

Source of the values: ChEMBL document CHEMBL1129939, “Meta-substituted benzofused macrocyclic lactams as zinc metalloprotease inhibitors” (J Med Chem, 1997).
